Measurements published in US4753802A (Alza Corporation, priority 1986, dated 1988).
Counter-ions that a name gives are not always drawn. Blank lines part the entries; values can stand above or below the compound they belong to.

Assays:
[1] = Solubility of verapamil and of osmotic solutes in a common aqueous fluid
From the text: (§1) The results of the formulation are given in the accompanying table.

[2] = Osmotic pressure of saturated verapamil hydrochloride solution / of the blend of verapamil plus osmotic solute (vapor pressure osmometry); type: physicochemical; settings: for π, osmotic pressure of the blend of Sd plus So: verapamil plus the osmotic solute named in the line
From the text: as §1

[3] = Cumulative amount of verapamil released over time from formulations with osmotic solutes; type: physicochemical; settings: verapamil formulated with osmotic solute at equilibrium ratio
From the text: as §1

[4] = in common aqueous fluid with verapamil

Compound: O=C(O)CC(O)C(=O)O (stereo not drawn) [Malic Acid]
So, solubility of the osmotic solute [1, 4]: 436 mg/mL

Compound: O=C(O)CCC(=O)O [Succinic Acid]
π, osmotic pressure of the blend of Sd plus So [2]: 22.9 atm

Compound: COc1ccc(CCN(C)CCCC(C#N)(c2ccc(OC)c(OC)c2)C(C)C)cc1OC (stereo not drawn) [verapamil, reference compound]
osmotic pressure of verapamil in the presence of mannitol ([2]; in the presence of mannitol): raised in the presence of mannitol

Compound: O[C@H]1[C@H](O)[C@@H](O)[C@H](O)[C@@H](O)[C@H]1O [Inositol]
π, osmotic pressure of the blend of Sd plus So [2]: 20.6 atm
cumulative amount of verapamil released over time [3]: insufficient cumulative amount of verapamil released over time

Compound: O=C[C@H](O)[C@@H](O)[C@@H](O)CO [L-Arabinose]
π, osmotic pressure of the blend of Sd plus So [2]: 110.3 atm
So, solubility of the osmotic solute ([1]; common aqueous fluid): 473 mg/mL

Compound: COc1ccc(CCN(C)CCCC(C#N)(c2ccc(OC)c(OC)c2)C(C)C)cc1OC (stereo not drawn) [Verapamil-HCl, verapamil hydrochloride, reference compound]
osmotic pressure of a saturated aqueous solution ([2]; at 37° C., vapor pressure osmometry): 11 atm
π, osmotic pressure ([2]; verapamil-HCl alone): 10.9 atm
π, osmotic pressure ([2]; verapamil-HCl in AGF): 13.0 atm
π, osmotic pressure ([2]; verapamil-HCl in AIF): 13.3 atm

Compound: O=C(O)/C=C/C(=O)O [Fumaric Acid]
π, osmotic pressure of the blend of Sd plus So [2]: 21.4 atm
So, solubility of the osmotic solute ([1]; common aqueous fluid): 77 mg/mL

Compound: OC[C@@H](O)[C@@H](O)[C@H](O)[C@H](O)CO [Mannitol]
π, osmotic pressure of the blend of Sd plus So [2]: 42.8 atm
So, solubility of the osmotic solute ([1]; common aqueous fluid): 219 mg/mL

Compound: Insulin: Insulin, listed as osmotic solute in the table
So, solubility of the osmotic solute [1, 4]: 50 mg/mL
ST, total solubility of Sd and So ([1]; verapamil plus osmotic solute in a common aqueous fluid): 197 mg/mL

Compound: O=C(O)CCC(=O)O [Disodium Succinate]
π, osmotic pressure of the blend of Sd plus So [2]: 36.6 atm

Now from value to compound:

π, osmotic pressure of the blend of Sd plus So [2]: 13.9 atm
Compound: O=C(O)CCCCC(=O)O [Adipic Acid]

π, osmotic pressure of the blend of Sd plus So [2]: 76.8 atm
Compound: O=C1O[C@H]([C@@H](O)CO)C(O)=C1O [Ascorbic Acid]

So, solubility of the osmotic solute ([1]; common aqueous fluid): 81 mg/mL
Compound: COc1ccccc1OCC(O)CO (stereo not drawn) [Guaifenesin, reference compound]

π, osmotic pressure of the blend of Sd plus So [2]: 87.1 atm
So, solubility of the osmotic solute [1, 4]: 457 mg/mL
Compound: O=C[C@H](O)[C@@H](O)[C@@H](O)[C@H](O)CO [D-Galactose]

π, osmotic pressure of the blend of Sd plus So [2]: 100.0 atm
Compound: O=C(O)C(O)C(O)C(=O)O (stereo not drawn) [Sodium Tartrate]
